The kinase profiling compilation of Christmann-Franck et al. (2016)

What was measured:
Experiment in all cases: KINOMEscan competition binding
Settings in all cases: compound 10.0 µM
ACVR1B (human) = ACVR1B (human) (UniProt P36896)
ACVR2B (human) = ACVR2B (human) (UniProt Q13705)
ALK (human) = ALK (human) (UniProt Q9UM73)
CAMKK2 (human) = CAMKK2 (human) (UniProt Q96RR4)
CDK19 (human) = CDK19 (human) (UniProt Q9BWU1)
CDK3 (human) = CDK3 (human) (UniProt Q00526)
CHEK2 (human) = CHEK2 (human) (UniProt O96017)
CHUK (human) = CHUK (human) (UniProt O15111)
CLK2 (human) = CLK2 (human) (UniProt P49760)
EPHA2 (human) = EPHA2 (human) (UniProt P29317)
EPHA4 (human) = EPHA4 (human) (UniProt P54764)
FYN (human) = FYN (human) (UniProt P06241)
GSK3A (human) = GSK3A (human) (UniProt P49840)
IKBKE (human) = IKBKE (human) (UniProt Q14164)
KDR (human) = KDR (human) (UniProt P35968)
LTK (human) = LTK (human) (UniProt P29376)
MAP2K1 (human) = MAP2K1 (human) (UniProt Q02750)
MAP2K3 (human) = MAP2K3 (human) (UniProt P46734)
MAP3K3 (human) = MAP3K3 (human) (UniProt Q99759)
MAP3K5 (human) = MAP3K5 (human) (UniProt Q99683)
MAPK11 (human) = MAPK11 (human) (UniProt Q15759)
MAPK3 (human) = MAPK3 (human) (UniProt P27361)
MAPK9 (human) = MAPK9 (human) (UniProt P45984)
MARK2 (human) = MARK2 (human) (UniProt Q7KZI7)
NEK5 (human) = NEK5 (human) (UniProt Q6P3R8)
PAK2 (human) = PAK2 (human) (UniProt Q13177)
PIP5K1A (human) = PIP5K1A (human) (UniProt Q99755)
PRKD2 (human) = PRKD2 (human) (UniProt Q9BZL6)
PRKX (human) = PRKX (human) (UniProt P51817)
ROCK2 (human) = ROCK2 (human) (UniProt O75116)
RPS6KA5 KD1 (human) = RPS6KA5 KD1 (human) (UniProt O75582)
SGK110 (human) = SGK110 (human) (UniProt P0C264)
SIK1 (human) = SIK1 (human) (UniProt P57059)
SRPK2 (human) = SRPK2 (human) (UniProt P78362)
STK17B (human) = STK17B (human) (UniProt O94768)
STK36 (human) = STK36 (human) (UniProt Q9NRP7)
SYK (human) = SYK (human) (UniProt P43405)
TESK1 (human) = TESK1 (human) (UniProt Q15569)
[1] = target: TYK2 JH2 pseudokinase (human) (UniProt P29597)
YES1 (human) = YES1 (human) (UniProt P07947)

Chain of MAPK9 (human) (P45984 whole entry, looked up): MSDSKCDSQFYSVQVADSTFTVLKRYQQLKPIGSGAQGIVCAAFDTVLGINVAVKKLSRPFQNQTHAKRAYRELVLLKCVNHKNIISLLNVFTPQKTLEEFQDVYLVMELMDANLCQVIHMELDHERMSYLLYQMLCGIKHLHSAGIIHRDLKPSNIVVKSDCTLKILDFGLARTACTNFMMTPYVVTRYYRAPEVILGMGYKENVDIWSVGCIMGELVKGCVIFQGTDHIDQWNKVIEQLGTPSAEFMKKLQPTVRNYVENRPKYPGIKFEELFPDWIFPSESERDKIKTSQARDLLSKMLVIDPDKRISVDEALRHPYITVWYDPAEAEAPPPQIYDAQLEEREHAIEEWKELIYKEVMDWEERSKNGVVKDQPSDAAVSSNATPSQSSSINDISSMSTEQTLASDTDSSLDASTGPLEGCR
Chain of EPHA2 (human) (P29317 whole entry, looked up): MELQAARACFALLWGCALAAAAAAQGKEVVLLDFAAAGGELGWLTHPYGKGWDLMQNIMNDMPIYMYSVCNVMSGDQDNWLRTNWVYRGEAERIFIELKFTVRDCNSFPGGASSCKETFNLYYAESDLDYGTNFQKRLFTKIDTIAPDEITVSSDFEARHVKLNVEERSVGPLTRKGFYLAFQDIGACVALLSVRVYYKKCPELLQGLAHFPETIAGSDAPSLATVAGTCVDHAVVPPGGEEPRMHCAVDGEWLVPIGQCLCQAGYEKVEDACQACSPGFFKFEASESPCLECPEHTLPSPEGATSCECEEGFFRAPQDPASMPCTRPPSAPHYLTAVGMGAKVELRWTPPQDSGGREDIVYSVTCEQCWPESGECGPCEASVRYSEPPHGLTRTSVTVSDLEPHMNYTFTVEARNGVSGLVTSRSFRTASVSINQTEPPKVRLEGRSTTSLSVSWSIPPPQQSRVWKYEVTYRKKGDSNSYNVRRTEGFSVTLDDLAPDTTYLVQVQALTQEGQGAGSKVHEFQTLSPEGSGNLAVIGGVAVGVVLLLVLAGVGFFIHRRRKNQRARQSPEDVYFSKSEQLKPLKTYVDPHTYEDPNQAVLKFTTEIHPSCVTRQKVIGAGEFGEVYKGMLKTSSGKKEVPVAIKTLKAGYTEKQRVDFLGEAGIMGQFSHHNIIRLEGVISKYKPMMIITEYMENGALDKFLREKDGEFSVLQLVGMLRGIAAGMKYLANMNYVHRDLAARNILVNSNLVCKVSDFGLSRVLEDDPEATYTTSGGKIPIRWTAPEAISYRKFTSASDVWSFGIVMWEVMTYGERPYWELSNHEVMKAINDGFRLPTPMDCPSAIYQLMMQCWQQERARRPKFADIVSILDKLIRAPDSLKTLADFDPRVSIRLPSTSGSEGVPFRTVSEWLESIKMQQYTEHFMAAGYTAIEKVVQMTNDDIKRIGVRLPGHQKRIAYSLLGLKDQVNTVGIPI
Chain of MARK2 (human) (Q7KZI7 whole entry, looked up): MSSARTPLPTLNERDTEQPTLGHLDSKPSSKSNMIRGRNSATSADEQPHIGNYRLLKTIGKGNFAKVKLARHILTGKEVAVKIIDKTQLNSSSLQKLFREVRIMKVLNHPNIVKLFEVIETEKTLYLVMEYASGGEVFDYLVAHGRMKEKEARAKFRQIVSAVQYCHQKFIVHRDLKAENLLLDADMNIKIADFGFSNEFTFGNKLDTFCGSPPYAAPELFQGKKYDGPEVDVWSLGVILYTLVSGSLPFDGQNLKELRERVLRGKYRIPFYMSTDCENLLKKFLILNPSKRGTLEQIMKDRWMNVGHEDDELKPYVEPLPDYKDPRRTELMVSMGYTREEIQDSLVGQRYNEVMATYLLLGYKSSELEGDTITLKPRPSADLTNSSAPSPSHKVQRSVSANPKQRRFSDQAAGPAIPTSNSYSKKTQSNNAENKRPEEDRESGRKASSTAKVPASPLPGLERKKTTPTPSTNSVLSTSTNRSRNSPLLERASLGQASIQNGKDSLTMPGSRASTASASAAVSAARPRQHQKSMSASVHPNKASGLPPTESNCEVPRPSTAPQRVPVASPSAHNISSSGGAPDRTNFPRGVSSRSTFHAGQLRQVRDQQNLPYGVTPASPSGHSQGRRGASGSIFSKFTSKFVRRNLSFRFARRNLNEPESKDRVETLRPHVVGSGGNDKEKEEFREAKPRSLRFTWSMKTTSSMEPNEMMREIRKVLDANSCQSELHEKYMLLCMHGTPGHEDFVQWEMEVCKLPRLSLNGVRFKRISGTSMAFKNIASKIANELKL
Chain of CDK19 (human) (Q9BWU1 whole entry, looked up): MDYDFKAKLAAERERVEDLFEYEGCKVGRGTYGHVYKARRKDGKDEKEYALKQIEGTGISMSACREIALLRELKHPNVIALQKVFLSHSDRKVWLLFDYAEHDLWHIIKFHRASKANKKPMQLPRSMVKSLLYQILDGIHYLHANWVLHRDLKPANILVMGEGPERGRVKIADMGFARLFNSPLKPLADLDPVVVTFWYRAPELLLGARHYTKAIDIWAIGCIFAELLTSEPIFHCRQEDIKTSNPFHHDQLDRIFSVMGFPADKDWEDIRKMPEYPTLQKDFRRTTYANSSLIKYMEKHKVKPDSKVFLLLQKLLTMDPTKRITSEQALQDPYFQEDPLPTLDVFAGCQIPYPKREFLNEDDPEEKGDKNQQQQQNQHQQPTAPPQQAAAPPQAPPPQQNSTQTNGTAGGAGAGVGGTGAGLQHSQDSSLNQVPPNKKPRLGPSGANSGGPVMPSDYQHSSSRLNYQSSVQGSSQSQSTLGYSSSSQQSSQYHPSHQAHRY
Chain of CHUK (human) (O15111 whole entry, looked up): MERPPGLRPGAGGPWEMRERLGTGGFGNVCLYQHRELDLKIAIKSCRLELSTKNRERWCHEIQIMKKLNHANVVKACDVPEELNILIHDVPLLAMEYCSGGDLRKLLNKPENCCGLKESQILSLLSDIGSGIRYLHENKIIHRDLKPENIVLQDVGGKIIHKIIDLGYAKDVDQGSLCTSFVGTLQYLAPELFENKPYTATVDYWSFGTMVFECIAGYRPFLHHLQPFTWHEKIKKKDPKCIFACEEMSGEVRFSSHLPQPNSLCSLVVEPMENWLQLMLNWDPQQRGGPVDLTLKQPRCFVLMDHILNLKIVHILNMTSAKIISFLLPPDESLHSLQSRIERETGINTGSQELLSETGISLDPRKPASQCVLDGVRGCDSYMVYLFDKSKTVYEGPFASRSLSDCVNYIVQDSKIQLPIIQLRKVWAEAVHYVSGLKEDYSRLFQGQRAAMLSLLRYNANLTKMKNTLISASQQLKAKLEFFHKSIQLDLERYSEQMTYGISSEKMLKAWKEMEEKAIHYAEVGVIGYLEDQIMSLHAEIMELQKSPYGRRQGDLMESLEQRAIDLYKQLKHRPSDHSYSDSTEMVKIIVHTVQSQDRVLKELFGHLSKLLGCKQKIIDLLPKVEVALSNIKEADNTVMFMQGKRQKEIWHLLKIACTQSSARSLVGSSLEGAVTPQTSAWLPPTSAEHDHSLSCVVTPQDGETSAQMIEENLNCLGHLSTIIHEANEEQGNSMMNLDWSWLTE
Chain of SRPK2 (human) (P78362 whole entry, looked up): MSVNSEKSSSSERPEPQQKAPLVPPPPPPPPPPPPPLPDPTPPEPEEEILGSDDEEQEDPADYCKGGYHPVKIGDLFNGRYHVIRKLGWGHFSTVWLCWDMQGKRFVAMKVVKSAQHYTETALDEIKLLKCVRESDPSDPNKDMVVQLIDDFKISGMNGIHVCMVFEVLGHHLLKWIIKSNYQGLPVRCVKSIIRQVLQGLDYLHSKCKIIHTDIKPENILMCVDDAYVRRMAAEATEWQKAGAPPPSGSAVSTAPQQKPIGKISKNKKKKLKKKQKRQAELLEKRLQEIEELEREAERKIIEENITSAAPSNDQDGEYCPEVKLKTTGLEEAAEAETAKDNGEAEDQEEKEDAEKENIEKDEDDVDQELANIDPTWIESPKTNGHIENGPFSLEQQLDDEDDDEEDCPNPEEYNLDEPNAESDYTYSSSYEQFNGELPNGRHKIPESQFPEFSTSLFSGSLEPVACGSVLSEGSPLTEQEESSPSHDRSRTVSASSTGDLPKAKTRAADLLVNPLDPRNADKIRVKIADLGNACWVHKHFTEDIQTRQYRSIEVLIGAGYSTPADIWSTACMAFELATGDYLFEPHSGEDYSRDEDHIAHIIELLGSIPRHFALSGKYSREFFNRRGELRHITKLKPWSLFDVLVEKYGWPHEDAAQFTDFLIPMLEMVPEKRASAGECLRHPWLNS
Chain of LTK (human) (P29376 whole entry, looked up): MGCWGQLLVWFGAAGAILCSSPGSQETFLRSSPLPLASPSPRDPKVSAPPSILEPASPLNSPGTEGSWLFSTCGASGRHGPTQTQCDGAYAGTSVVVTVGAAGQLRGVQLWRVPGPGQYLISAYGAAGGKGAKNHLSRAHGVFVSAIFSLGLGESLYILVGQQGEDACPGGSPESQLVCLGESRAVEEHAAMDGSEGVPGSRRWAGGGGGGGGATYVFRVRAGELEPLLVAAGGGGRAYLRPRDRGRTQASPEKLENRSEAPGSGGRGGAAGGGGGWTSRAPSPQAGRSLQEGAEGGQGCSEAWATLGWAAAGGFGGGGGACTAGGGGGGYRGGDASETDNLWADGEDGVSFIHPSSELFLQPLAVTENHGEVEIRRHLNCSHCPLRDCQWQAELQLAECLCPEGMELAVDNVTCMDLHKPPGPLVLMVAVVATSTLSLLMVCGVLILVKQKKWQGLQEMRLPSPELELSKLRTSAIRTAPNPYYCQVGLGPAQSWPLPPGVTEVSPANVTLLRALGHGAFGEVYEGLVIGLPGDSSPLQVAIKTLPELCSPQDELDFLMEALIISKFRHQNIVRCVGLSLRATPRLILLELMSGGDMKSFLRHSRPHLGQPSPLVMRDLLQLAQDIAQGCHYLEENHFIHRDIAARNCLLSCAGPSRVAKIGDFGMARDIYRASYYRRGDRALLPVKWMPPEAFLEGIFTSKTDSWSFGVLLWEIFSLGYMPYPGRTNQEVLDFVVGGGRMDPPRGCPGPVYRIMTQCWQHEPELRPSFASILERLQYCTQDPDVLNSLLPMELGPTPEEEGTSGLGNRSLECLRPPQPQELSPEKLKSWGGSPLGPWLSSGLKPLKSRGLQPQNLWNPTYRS

| SMILES | kinase still bound, per cent of control (ACVR1B (human)) | kinase still bound, per cent of control (ACVR2B (human)) | kinase still bound, per cent of control (ALK (human)) | kinase still bound, per cent of control (CAMKK2 (human)) | kinase still bound, per cent of control (CDK19 (human)) | kinase still bound, per cent of control (CDK3 (human)) | kinase still bound, per cent of control (CHEK2 (human)) | kinase still bound, per cent of control (CHUK (human)) | kinase still bound, per cent of control (CLK2 (human)) | kinase still bound, per cent of control (EPHA2 (human)) | kinase still bound, per cent of control (EPHA4 (human)) | kinase still bound, per cent of control (FYN (human)) | kinase still bound, per cent of control (GSK3A (human)) | kinase still bound, per cent of control (IKBKE (human)) | kinase still bound, per cent of control (KDR (human)) | kinase still bound, per cent of control (LTK (human)) | kinase still bound, per cent of control (MAP2K1 (human)) | kinase still bound, per cent of control (MAP2K3 (human)) | kinase still bound, per cent of control (MAP3K3 (human)) | kinase still bound, per cent of control (MAP3K5 (human)) | also measured |
| --- | --- | --- | --- | --- | --- | --- | --- | --- | --- | --- | --- | --- | --- | --- | --- | --- | --- | --- | --- | --- | --- |
| O=C1Nc2ccc(I)cc2/C1=C/c1cc(Br)c(O)c(Br)c1 | 33% | 83% | 100% | 9% | 63% | 90% | 12% | 100% | 15% | 83% | 100% | 52% | 100% | 86% | 100% | 47% | 68% | 46% | 92% | 100% | kinase still bound, per cent of control (MAPK11 (human)): 88%; kinase still bound, per cent of control (MAPK3 (human)): 100%; kinase still bound, per cent of control (MAPK9 (human)): 72%; kinase still bound, per cent of control (MARK2 (human)): 44%; kinase still bound, per cent of control (NEK5 (human)): 87%; kinase still bound, per cent of control (PAK2 (human)): 53%; kinase still bound, per cent of control (PIP5K1A (human)): 19%; kinase still bound, per cent of control (PRKD2 (human)): 100%; kinase still bound, per cent of control (PRKX (human)): 100%; kinase still bound, per cent of control (ROCK2 (human)): 55%; kinase still bound, per cent of control (RPS6KA5 KD1 (human)): 96%; kinase still bound, per cent of control (SGK110 (human)): 100%; kinase still bound, per cent of control (SIK1 (human)): 83%; kinase still bound, per cent of control (SRPK2 (human)): 87%; kinase still bound, per cent of control (STK17B (human)): 40%; kinase still bound, per cent of control (STK36 (human)): 14%; kinase still bound, per cent of control (SYK (human)): 78%; kinase still bound, per cent of control (TESK1 (human)): 100%; kinase still bound, per cent of control [1]: 100%; kinase still bound, per cent of control (YES1 (human)): 90% |
| CN(C)C/C=C/C(=O)Nc1cccc(Nc2ncc3c(n2)N(C)c2ccccc2C(=O)N3C)c1 | 53% | 9.4% | 51% | 8.1% | 100% | 100% | 94% | 100% | 41% | 82% | 79% | 6.7% | 69% | 100% | 90% | 100% | 82% | 100% | 0.1% | 100% | kinase still bound, per cent of control (MAPK11 (human)): 89%; kinase still bound, per cent of control (MAPK3 (human)): 100%; kinase still bound, per cent of control (MAPK9 (human)): 100%; kinase still bound, per cent of control (MARK2 (human)): 21%; kinase still bound, per cent of control (NEK5 (human)): 58%; kinase still bound, per cent of control (PAK2 (human)): 67%; kinase still bound, per cent of control (PIP5K1A (human)): 9.9%; kinase still bound, per cent of control (PRKD2 (human)): 36%; kinase still bound, per cent of control (PRKX (human)): 100%; kinase still bound, per cent of control (ROCK2 (human)): 58%; kinase still bound, per cent of control (RPS6KA5 KD1 (human)): 100%; kinase still bound, per cent of control (SGK110 (human)): 0.25%; kinase still bound, per cent of control (SIK1 (human)): 2.7%; kinase still bound, per cent of control (SRPK2 (human)): 100%; kinase still bound, per cent of control (STK17B (human)): 100%; kinase still bound, per cent of control (STK36 (human)): 100%; kinase still bound, per cent of control (SYK (human)): 50%; kinase still bound, per cent of control (TESK1 (human)): 100%; kinase still bound, per cent of control [1]: 18%; kinase still bound, per cent of control (YES1 (human)): 13% |
